Reference: patent US4267184A, “Antiinflammatory 4,5-diaryl-2-(substituted-thio)pyrroles and their corresponding sulfoxides and sulfones” (E. I. Du Pont de Nemours and Company, priority 1980, dated 1981)

What was measured:
[1] = system: phenylquinone writhing in mice; experiment: Phenylquinone Writhing Test (analgesic activity); assay type: in vivo, female white mice; conditions: Mus musculus, oral, phenylquinone i.p., effective analgesic dose for 50% of the mice
Excerpt: A procedure for detecting and comparing the analgesic activity of compounds in this series and standard drugs for which there is a good correlation with human efficacy is the phenylquinone writhing test.
(§1) The test procedures employed for determining antiinflammatory and analgesic activity are described below with test data included in Tables VII and VIII.
The phenylquinone writhing test, modified from Siegmund, et al., Proc. Soc. Exp. Biol. Med. 95, 729 (1957), was employed. A test compound suspended in 1% methylcellulose was given orally to fasted (17-21 hours) female white mice, 5-20 animals per double blind test. Aqueous (0.01% phenyl-p-benzoquinone) phenylquinone was injected intraperitoneally at 24 minutes later using 0.20 ml per mouse. […] The effective analgesic dose for 50% of the mice (ED50) was calculated by the moving average method of Thompson, W. R., Bact. Rev. 11, 115-145 (1947).

[2] = system: Adjuvant-Induced Arthritis in Rats; experiment: Established Adjuvant-Induced Arthritis in Rats; assay type: in vivo, Charles River Lewis male rats; conditions: Rattus norvegicus; for ED50: 168 h, oral gavage daily for 7 days, ED50% decrease from control paw volume
Procedure: A procedure for detecting and comparing the antiinflammatory activity of compounds in this series and standard drugs for which there is a good correlation with human efficacy is the adjuvant-induced arthritis test in rats.
as §1
Charles River Lewis male rats (130-150 grams) are injected subcutaneously in plantar area of the right hind paw with 0.1 ml of adjuvant (Difco heat-killed, lyophilized Mycobacterium butyricum suspended in mineral oil 5 mg/ml). 20 Non-arthritic controls are injected with mineral oil. The animals are held for 2 weeks to allow development of arthritis. Paw volumes (uninjected, left hind paw) are measured and the adjuvant injected rats are culled and distributed to treatment groups of 10 of equal disease severity. Non-arthritic controls are distributed to 2 groups of 10. The rats are given oral doses of compound or PVA-Acacia (Polyvinyl Alcohol 1%, Gum Acacia, U.S.P. 5%, Methylparaben 0.5%) (10 ml/kg) by gavage on that day and on the 6 following days. One day after the last dose the paw volumes (uninjected, left hind paw) are measured using a Ugo Basile Volume Differential Meter Model 7101. [formula]
Dose-response regression lines of the % decrease are plotted on semi-log paper by visual fit and the ED50% decrease from control paw volume is determined by inspection.

[3] = Table VII, oral, read-out: percent reduction in paw volume at the indicated dose

SMILES	ED50 ([1]; Table VII) [mg/kg]	ED50 ([2]; Table VII) [mg/kg]	other results
CSc1ccc(-c2[nH]c(SC(F)(F)F)cc2-c2ccc(F)cc2)cc1 [Example 26]	–	–	ED50 ([1]; Table VIII): > 108 mg/kg; ED50 ([2]; Table VIII): 0.6 mg/kg
Fc1ccc(-c2cc(SC(F)(F)F)[nH]c2-c2cccs2)cc1 [Example 27]	–	–	ED50 ([1]; Table VIII): > 108 mg/kg; ED50 ([2]; Table VIII): ~27 mg/kg
Fc1ccc(-c2cc(SC(F)(F)F)[nH]c2-c2cccnc2)cc1 [Example 28]	–	–	ED50 ([1]; Table VIII): > 135 mg/kg; ED50 ([2]; Table VIII): 0.04 mg/kg
CS(=O)(=O)c1ccc(-c2[nH]c(SC(F)(F)F)cc2-c2ccc(F)cc2)cc1 [Example 29]	–	–	ED50 ([1]; Table VIII): > 108 mg/kg; ED50 ([2]; Table VIII): 0.15 mg/kg
Cc1c(SC(F)(F)F)[nH]c(-c2ccc(Cl)cc2)c1-c1ccc(Cl)cc1 [Example 30]	–	–	ED50 ([1]; Table VIII): > 108 mg/kg; ED50 ([2]; Table VIII): 2 mg/kg
Cc1c(SC(F)(F)F)[nH]c(-c2ccc(F)cc2)c1-c1ccc(F)cc1 [Example 31]	–	–	ED50 ([1]; Table VIII): > 135 mg/kg; ED50 ([2]; Table VIII): 0.6 mg/kg
CCCc1c(SC(F)(F)F)[nH]c(-c2ccc(F)cc2)c1-c1ccc(F)cc1 [Example 33]	–	–	ED50 ([1]; Table VIII): > 108 mg/kg; ED50 ([2]; Table VIII): 6.5 mg/kg
Fc1ccc(-c2cc(SC(F)(F)C(F)F)[nH]c2-c2ccc(F)cc2)cc1 [Example 35, 4,5-Bis(4-fluorophenyl)-2-(1,1,2,2-tetrafluoroethylthio)pyrrole]	> 108	4	–
COc1ccc(-c2cc(SC)[nH]c2-c2ccc(OC)cc2)cc1 [Example 36]	> 130	5	–
CSc1cc(-c2ccc(Cl)cc2)c(-c2ccc(Cl)cc2)[nH]1 [Example 38]	> 108	10	–
FC(F)C(F)(F)Sc1cc(-c2ccc(Cl)cc2)c(-c2ccc(Cl)cc2)[nH]1 [Example 40]	> 108	–	inhibition in vivo at 9 mg/kg [2, 3]: 36%
CSc1cc(-c2ccc(F)cc2)c(-c2ccc(F)cc2)[nH]1 [Example 41]	> 108	–	inhibition in vivo at 27 mg/kg [2, 3]: 19%
CSc1cc(-c2ccc(Cl)cc2)c(-c2ccc(F)cc2)[nH]1 [Example 43]	> 108	20	–
CSc1cc(-c2ccc(F)cc2)c(-c2ccc(Cl)cc2)[nH]1 [Example 44]	> 108	25	–
COc1ccc(-c2[nH]c(SC)cc2-c2ccc(F)cc2)cc1 [Example 45]	78	37	–
COc1ccc(-c2[nH]c(SC)cc2-c2ccc(Cl)cc2)cc1 [Example 46]	63	23	–
CSc1cc(-c2ccc(Cl)cc2)c(-c2ccccc2)[nH]1 [Example 48]	> 108	–	inhibition in vivo at 45 mg/kg ([2]; Table VII, oral, dose 45 mg/kg, read-out: percent reduction in paw volume at the indicated dose): 22%
CSc1cc(-c2ccc(C)cc2)c(-c2ccc(C)cc2)[nH]1 [Example 49]	> 135	50	–
O=S(=O)(c1cc(-c2ccccc2)c(-c2ccccc2)[nH]1)C(F)(F)F [Example 51]	15	–	inhibition in vivo at 25 mg/kg [2, 3]: 46%
[O-][S+](c1cc(-c2ccccc2)c(-c2ccccc2)[nH]1)C(F)(F)F (centres unmarked) [Example 52]	30	–	inhibition in vivo at 25 mg/kg [2, 3]: 31%
COc1ccc(-c2cc(S(=O)(=O)C(F)(F)F)[nH]c2-c2ccc(OC)cc2)cc1 [Example 53]	78	–	inhibition in vivo at 9 mg/kg [2, 3]: 36%
COc1ccc(-c2cc(S(C)(=O)=O)[nH]c2-c2ccc(OC)cc2)cc1 [Example 54]	16	1	–

SMILES	ED50 ([1]; Table VII) [mg/kg]	ED50 ([2]; Table VII) [mg/kg]	other results
CCS(=O)(=O)c1cc(-c2ccc(OC)cc2)c(-c2ccc(OC)cc2)[nH]1 [Example 55]	19	9	–
O=S(=O)(c1cc(-c2ccc(F)cc2)c(-c2ccc(F)cc2)[nH]1)C(F)(F)F [Example 56]	> 135	1.4	–
[O-][S+](c1cc(-c2ccc(F)cc2)c(-c2ccc(F)cc2)[nH]1)C(F)(F)F (centres unmarked) [Example 57]	> 135	1	–
O=S(=O)(c1cc(-c2ccc(Cl)cc2)c(-c2ccc(Cl)cc2)[nH]1)C(F)(F)F [Example 58]	< 130	1.7	–
[O-][S+](c1cc(-c2ccc(Cl)cc2)c(-c2ccc(Cl)cc2)[nH]1)C(F)(F)F (centres unmarked) [Example 59]	> 135	2.7	–
CCOc1ccc(-c2[nH]c(S(=O)(=O)C(F)(F)F)cc2-c2ccc(F)cc2)cc1 [Example 60]	> 130	16	–
CCOc1ccc(-c2[nH]c([S+]([O-])C(F)(F)F)cc2-c2ccc(F)cc2)cc1 (centres unmarked) [Example 61]	> 130	–	inhibition in vivo at 9 mg/kg [2, 3]: 14%
CS(=O)(=O)c1cc(-c2ccc(Cl)cc2)c(-c2ccc(Cl)cc2)[nH]1 [Example 62]	> 108	1.5	–
CCOc1ccc(-c2[nH]c(S(C)(=O)=O)cc2-c2ccc(F)cc2)cc1 [Example 63]	> 108	–	inhibition in vivo at 25 mg/kg [2, 3]: 34%
CS(=O)(=O)c1cc(-c2ccc(F)cc2)c(-c2ccc(F)cc2)[nH]1 [Example 64]	> 108	–	inhibition in vivo at 27 mg/kg [2, 3]: 25%
CCS(=O)(=O)c1cc(-c2ccc(Cl)cc2)c(-c2ccc(Cl)cc2)[nH]1 [Example 65]	> 108	–	inhibition in vivo at 27 mg/kg [2, 3]: 23%
CS(=O)(=O)c1cc(-c2ccc(Cl)cc2)c(-c2ccc(F)cc2)[nH]1 [Example 66]	> 135	27	–
CS(=O)(=O)c1cc(-c2ccc(F)cc2)c(-c2ccc(Cl)cc2)[nH]1 [Example 67]	38	50	–
COc1ccc(-c2[nH]c(S(C)(=O)=O)cc2-c2ccc(F)cc2)cc1 [Example 68]	18	–	inhibition in vivo at 27 mg/kg [2, 3]: 34%
COc1ccc(-c2[nH]c(S(C)(=O)=O)cc2-c2ccc(Cl)cc2)cc1 [Example 69]	38	13	–
CS(=O)(=O)c1cc(-c2ccc(Cl)cc2)c(-c2ccccc2)[nH]1 [Example 71]	> 108	–	inhibition in vivo at 27 mg/kg [2, 3]: 23%
Cc1ccc(-c2cc(S(C)(=O)=O)[nH]c2-c2ccc(C)cc2)cc1 [Example 72]	7.2	90	–
CC(=O)n1c(SC(F)(F)F)cc(-c2ccc(F)cc2)c1-c1ccc(F)cc1 [Example 73, 1-Acetyl-4,5-bis(4-fluorophenyl)-2-(trifluoromethylthio)pyrrole]	–	–	ED50 ([1]; Table VIII): > 108 mg/kg; ED50 ([2]; Table VIII): 4 mg/kg
Cn1c(SC(F)(F)F)cc(-c2ccc(F)cc2)c1-c1ccc(F)cc1 [Example 74, 1-Methyl-4,5-bis(4-fluorophenyl)-2-(trifluoromethylthio)pyrrole]	–	–	ED50 ([1]; Table VIII): > 108 mg/kg; ED50 ([2]; Table VIII): 1.1 mg/kg
CCOC(=O)n1c(SC(F)(F)F)cc(-c2ccc(F)cc2)c1-c1ccc(F)cc1 [Example 75, 1-Ethoxycarbonyl-4,5-bis(4-fluorophenyl)-2-(trifluoromethylthio)pyrrole]	–	–	ED50 ([1]; Table VIII): > 108 mg/kg; ED50 ([2]; Table VIII): 1.9 mg/kg
O=C(c1ccccc1)n1c(SC(F)(F)F)cc(-c2ccc(F)cc2)c1-c1ccc(F)cc1 [Example 76, 1-Benzoyl-4,5-bis(4-fluorophenyl)-2-(trifluoromethylthio)pyrrole]	–	–	ED50 ([1]; Table VIII): > 108 mg/kg; ED50 ([2]; Table VIII): 6.6 mg/kg
